From patent publication US20210215714A1, “COMPLEMENT ALTERNATIVE PATHWAY-ASSOCIATED NEPHROPATHY BIOMARKERS” (Achillion Pharmaceuticals, Inc., priority 2018, published 2021)

How the values were obtained:
C3b/iC3b = assay: Phase 2a study: % fragment C3; type: in vivo, human; settings: 14-day treatment, patients A-F
Method: (§1) Systemic complement proteins were measured in serum and plasma including serum Ba, plasma Bb, serum C3, serum Factor D, serum C4, and % Fragment C3.
C3 levels in serum were measured using a quantitative sandwich enzyme immunoassay technique. A monoclonal antibody specific for human C3 was pre-coated onto a micro-assay plate. Standards and samples were pipetted into the wells and any C3 present was bound by the immobilized antibody. After washing away any unbound substances, an enzyme-linked polyclonal antibody specific for human C3 was added to the wells. Following a wash to remove any unbound antibody-enzyme reagent, a substrate solution was added to the wells and color develops in proportion to the amount of C3 bound in the initial step. The color development was stopped and the intensity of the color was measured. […] Patients E and F show similar results.

[1] = Phase 2a study in C3G / IC-MPGN patients: urine albumin-to-creatinine ratio (ACR); settings: for ACR GEOMEAN / ACR MEAN: patients A-F;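 on all read-outs here: urine samples from C3G or IC-MPGN patients read by central lab dipstick on automated urine chemistry analyzer, ratio computed from albumin and creatinine pad absorbance, healthy volunteer urine as control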
Excerpt: 10 patients with either C3 Glomerulopathy (C3G) or Immune-Complex Membranoproliferative Glomerulonephritis (IC-MPGN) are to be enrolled across two dose groups. […] Inclusion criteria include a clinical diagnosis of C3G (C3 glomerulonephritis [C3GN] or dense deposit disease [DDD], the 2 types of C3G) or idiopathic immune-complex membranoproliferative glomerulonephritis (IC-MPGN) by renal biopsy for at least 3 months prior to dosing, with the pathologic diagnosis verified by review of the renal biopsy by the study central pathologist. Patients must have low C3 levels (<50% of the lower limit of normal) and normal or near-normal C4 levels (>90% of the lower limit of normal). Group 1 has enrolled 2 out of 2 planned patients and Group 2 has enrolled 4 out of 8 planned patients.
Albumin and creatinine levels were measured in urine samples by a central reference lab using a urine dipstick method. Urine from non-study healthy volunteers served as control samples. An automatic urinary chemical analyzer was used with a dye for the detection of albumin at >8 mg/dL. Also present on the dipstick was a pad for detection of creatinine that uses the peroxidase activity of the copper-creatinine complex. The ACR ratio was automatically calculated by the analyzer based on the light absorbent readings of the albumin and creatinine test pads.

Factor D = assay: Phase 2a study: Factor D levels in serum; type: in vivo, human; settings: 14-day treatment, patients A-F
Method: as §1
(§2) Factor D levels in serum were measured using a quantitative sandwich enzyme immunoassay technique. A monoclonal antibody specific for human Complement Factor D was pre-coated onto a micro-assay plate. Standards and samples were pipetted into the wells and any Complement Factor D present was bound by the immobilized antibody. After washing away any unbound substances, an enzyme-linked polyclonal antibody specific for human Complement Factor D was added to the wells. Following a wash to remove any unbound antibody-enzyme reagent, a substrate solution was added to the wells and color develops in proportion to the amount of Complement Factor D bound in the initial step. The color development was stopped and the intensity of the color was measured spectrophotometrically at 450 nm.

AP activity [2] = assay: rabbit erythrocyte hemolysis (AP activity in vitro); type: cell-based; settings: Oryctolagus cuniculus
C4 = assay: Phase 2a study: C4 levels in serum; type: in vivo, human; settings: 14-day treatment, patients A-F
Method: as §1
as §2, with “C4” for “Factor D”, “C4” for “Complement Factor D”

AP activity [3] = assay: Wieslab assay (AP activity in vitro); type: biochemical

CC(=O)c1nn(CC(=O)N2C[C@H](F)C[C@H]2C(=O)Nc2cccc(Br)n2)c2ccc(-c3cnc(C)nc3)cc12 [Compound 1, (2S,4R)-1-(2-(3-acetyl-5-(2-methylpyrimidin-5-yl)-1H-indazol-1-yl)acetyl)-N-(6-bromopyridin-2-yl)-4-fluoropyrrolidine-2-carboxamide]
% fragment C3 (C3b/iC3b): reduced | ACR ([1]; Patient A, 100 mg TID, Day 1/0 Hour): 259 mg/mmol | ACR ([1]; Patient A, 100 mg TID, Day 4): 218 mg/mmol | ACR ([1]; Patient A, 100 mg TID, Day 7/0 Hour): 233 mg/mmol | ACR ([1]; Patient A, 100 mg TID, Day 10): 228 mg/mmol | ACR ([1]; Patient A, 100 mg TID, Day 14): 175 mg/mmol | ACR ([1]; Patient A, 100 mg TID, Day 15 Taper): 144 mg/mmol | ACR ([1]; Patient A, 100 mg TID, Day 16 Taper): 143 mg/mmol | ACR ([1]; Patient A, 100 mg TID, Day 17 Taper): 115 mg/mmol | ACR ([1]; Patient A, 100 mg TID, Day 21 Taper): 140 mg/mmol | ACR ([1]; Patient A, 100 mg TID, Follow-Up Day 24): 138 mg/mmol | ACR ([1]; Patient A, 100 mg TID, Follow-Up Day 28): 132 mg/mmol | ACR ([1]; Patient A, 100 mg TID, Follow-Up Day 35): 160 mg/mmol | ACR ([1]; Patient A, 100 mg TID, Follow-Up Day 49): 147 mg/mmol | ACR ([1]; Patient A, 100 mg TID, Screen): 228 mg/mmol | ACR ([1]; Patient B, 100 mg TID, Day 1/0 Hour): 580 mg/mmol | ACR ([1]; Patient B, 100 mg TID, Day 4): 264 mg/mmol | ACR ([1]; Patient B, 100 mg TID, Day 7/0 Hour): 249 mg/mmol | ACR ([1]; Patient B, 100 mg TID, Day 10): 253 mg/mmol | ACR ([1]; Patient B, 100 mg TID, Day 14): 343 mg/mmol | ACR ([1]; Patient B, 100 mg TID, Day 15 Taper): 325 mg/mmol | ACR ([1]; Patient B, 100 mg TID, Day 16 Taper): 329 mg/mmol | ACR ([1]; Patient B, 100 mg TID, Day 17 Taper): 263 mg/mmol | ACR ([1]; Patient B, 100 mg TID, Day 21 Taper): 373 mg/mmol | ACR ([1]; Patient B, 100 mg TID, Follow-Up Day 24): 469 mg/mmol | ACR ([1]; Patient B, 100 mg TID, Follow-Up Day 28): 381 mg/mmol | ACR ([1]; Patient B, 100 mg TID, Follow-Up Day 49): 140 mg/mmol | ACR ([1]; Patient B, 100 mg TID, Screen): 486 mg/mmol | ACR ([1]; Patient C, 200 mg TID, Day 1/0 Hour): 58 mg/mmol | ACR ([1]; Patient C, 200 mg TID, Day 4): 27 mg/mmol | ACR ([1]; Patient C, 200 mg TID, Day 7/0 Hour): 22 mg/mmol | ACR ([1]; Patient C, 200 mg TID, Day 10): 35 mg/mmol | ACR ([1]; Patient C, 200 mg TID, Day 14): 30 mg/mmol | ACR ([1]; Patient C, 200 mg TID, Day 15 Taper): 44 mg/mmol | ACR ([1]; Patient C, 200 mg TID, Day 16 Taper): 26 mg/mmol | ACR ([1]; Patient C, 200 mg TID, Day 17 Taper): 32 mg/mmol | ACR ([1]; Patient C, 200 mg TID, Day 21 Taper): 23 mg/mmol | ACR ([1]; Patient C, 200 mg TID, Follow-Up Day 24): 32 mg/mmol | ACR ([1]; Patient C, 200 mg TID, Follow-Up Day 28): 47 mg/mmol | ACR ([1]; Patient C, 200 mg TID, Follow-Up Day 49): 20 mg/mmol | ACR ([1]; Patient C, 200 mg TID, Screen): 44 mg/mmol | ACR ([1]; Patient C, 200 mg TID, Screen 1): 128 mg/mmol | ACR ([1]; Patient D, 200 mg TID, Day 1/0 Hour): 224 mg/mmol | ACR ([1]; Patient D, 200 mg TID, Day 4): 279 mg/mmol | ACR ([1]; Patient D, 200 mg TID, Day 7/0 Hour): 322 mg/mmol | ACR ([1]; Patient D, 200 mg TID, Day 10): 648 mg/mmol | ACR ([1]; Patient D, 200 mg TID, Day 14): 286 mg/mmol | ACR ([1]; Patient D, 200 mg TID, Day 15 Taper): 328 mg/mmol | ACR ([1]; Patient D, 200 mg TID, Day 17 Taper): 586 mg/mmol | ACR ([1]; Patient D, 200 mg TID, Day 21 Taper): 564 mg/mmol | ACR ([1]; Patient D, 200 mg TID, Follow-Up Day 24): 282 mg/mmol | ACR ([1]; Patient D, 200 mg TID, Follow-Up Day 28): 577 mg/mmol | ACR ([1]; Patient D, 200 mg TID, Follow-Up Day 35): 398 mg/mmol | ACR ([1]; Patient D, 200 mg TID, Follow-Up Day 49): 636 mg/mmol | ACR ([1]; Patient D, 200 mg TID, Screen): 579 mg/mmol | ACR ([1]; Patient D, 200 mg TID, Screen 1): 160 mg/mmol | ACR ([1]; Patient E, 200 mg TID, Day 1/0 Hour): 424 mg/mmol | ACR ([1]; Patient E, 200 mg TID, Day 4): 418 mg/mmol | ACR ([1]; Patient E, 200 mg TID, Day 7/0 Hour): 533 mg/mmol | ACR ([1]; Patient E, 200 mg TID, Day 10): 625 mg/mmol | ACR ([1]; Patient E, 200 mg TID, Day 14): 264 mg/mmol | ACR ([1]; Patient E, 200 mg TID, Day 15 Taper): 327 mg/mmol | ACR ([1]; Patient E, 200 mg TID, Day 16 Taper): 277 mg/mmol | ACR ([1]; Patient E, 200 mg TID, Day 17 Taper): 475 mg/mmol | ACR ([1]; Patient E, 200 mg TID, Day 21 Taper): 257 mg/mmol | ACR ([1]; Patient E, 200 mg TID, Follow-Up Day 24): 303 mg/mmol | ACR ([1]; Patient E, 200 mg TID, Follow-Up Day 28): 307 mg/mmol | ACR ([1]; Patient E, 200 mg TID, Follow-Up Day 49): 327 mg/mmol | ACR ([1]; Patient F, 200 mg TID, Day 4): 152 mg/mmol | ACR ([1]; Patient F, 200 mg TID, Day 7/0 Hour): 94 mg/mmol | ACR ([1]; Patient F, 200 mg TID, Day 14): 184 mg/mmol | ACR ([1]; Patient F, 200 mg TID, Day 15 Taper): 720 mg/mmol | ACR ([1]; Patient F, 200 mg TID, Day 16 Taper): 235 mg/mmol | ACR ([1]; Patient F, 200 mg TID, Day 17 Taper): 475 mg/mmol | ACR ([1]; Patient F, 200 mg TID, Day 21 Taper): 348 mg/mmol | ACR ([1]; Patient F, 200 mg TID, Follow-Up Day 24): 279 mg/mmol | ACR ([1]; Patient F, 200 mg TID, Follow-Up Day 28): 253 mg/mmol | ACR ([1]; Patient F, 200 mg TID, Follow-Up Day 35): 168 mg/mmol | ACR ([1]; Patient F, 200 mg TID, Follow-Up Day 49): 564 mg/mmol | ACR ([1]; Patient F, 200 mg TID, Screen): 308 mg/mmol | reductions in ACR ([1]; Patients A, B, C, E, and F, two-week treatment): approximately 50% | ACR GEOMEAN ([1]; Day 1/0 Hour): 249.6 mg/mmol | ACR MEAN ([1]; Day 1/0 Hour): 306.4 mg/mmol | ACR GEOMEAN ([1]; Day 4): 174.0 mg/mmol | ACR MEAN ([1]; Day 4): 226.3 mg/mmol | ACR GEOMEAN ([1]; Day 7/0 Hour): 164.9 mg/mmol | ACR MEAN ([1]; Day 7/0 Hour): 242.1 mg/mmol | ACR GEOMEAN ([1]; Day 14): 171.4 mg/mmol | ACR MEAN ([1]; Day 14): 213.8 mg/mmol | ACR GEOMEAN ([1]; Day 15 Taper): 232.4 mg/mmol | ACR MEAN ([1]; Day 15 Taper): 314.6 mg/mmol | ACR GEOMEAN ([1]; Day 17 Taper): 224.2 mg/mmol | ACR MEAN ([1]; Day 17 Taper): 324.2 mg/mmol | ACR GEOMEAN ([1]; Day 21 Taper): 197.9 mg/mmol | ACR MEAN ([1]; Day 21 Taper): 284.0 mg/mmol | ACR GEOMEAN ([1]; Follow-Up Day 24): 191.6 mg/mmol | ACR MEAN ([1]; Follow-Up Day 24): 250.6 mg/mmol | ACR GEOMEAN ([1]; Follow-Up Day 28): 217.5 mg/mmol | ACR MEAN ([1]; Follow-Up Day 28): 282.6 mg/mmol | ACR GEOMEAN ([1]; Follow-Up Day 49): 191.1 mg/mmol | ACR MEAN ([1]; Follow-Up Day 49): 305.6 mg/mmol | Serum Factor D (Factor D): remained unchanged | IC50 (AP activity [2]): 27 nM | Serum C4 (C4): remained unchanged | IC50 (AP activity [3]): 26 nM
